Laboratory results from US20230312759A1, “BISPECIFIC ANTIBODY AGAINST CD3 AND CD20 IN COMBINATION THERAPY FOR TREATING DIFFUSE LARGE B-CELL LYMPHOMA” (GENMAB A/S, priority 2020, published 2023).

Columns and labels:
R/R B-NHL = assay: Ongoing clinical trial of epcoritamab monotherapy (NCT03625037); format: in vivo, human; conditions: R/R B-NHL patients, preliminary data
Source text: Summary of Ongoing Clinical Trial with Epcoritamab Epcoritamab as monotherapy is currently in a clinical trial for the treatment of relapsed/refractory (R/R) B-NHL (ClinicalTrials.gov Identifier: NCT03625037).

[1] = tested on: T cells incubated with Raji cells; assay: In vitro T-cell activation assay, T cells incubated with Raji cells; format: cell-based, human; conditions: Raji target cells, 48 hours
Protocol: (§1) Briefly, human Burkitt lymphoma (Raji) and DLBCL (SU-DHL-4) cell lines were used as target cells. Cells were cultured in culture medium (RPMI 1640 with HEPES and L-Glutamine supplemented with 10% heat-inactivated donor bovine serum with iron, and 1% [v/v]penicillin/streptomycin) to which 2 mM L-glutamine and 1 mM sodium pyruvate were added, at 37° C., 5% CO2. T cells, isolated from human healthy donor buffy coats (Sanquin) by negative selection using the RosetteSep™ Human T Cell Enrichment Cocktail (Stemcell Technologies), followed by density centrifugation over a Ficoll gradient, both according to the manufacturer's instructions, were used as effector cells. Isolated cells were washed twice in phosphate buffered saline (PBS) and counted using acridine orange/propidium iodide (AO/PI) viability staining solution (Nexcelom Bioscience) on a Cellometer® Auto 2000 Cell Viability Counter. […] B-cell viability and T-cell activation were measured by flow cytometry (count of CD22-positive cells; expression of the T-cell activation markers CD69, CD25, programmed cell death protein 1 (PD-1), and CD107 [lysosomal associated membrane protein 1; LAMP-1] on CD4+ and CD8+ T cells). Absolute cell numbers were determined by adding Accucheck Counting beads (100 μL/well) (Thermofisher) and calculated as follows: […]

[2] = tested on: T cells incubated with SU-DHL-4 cells; assay: In vitro T-cell activation assay, T cells incubated with SU-DHL-4 cells; format: cell-based, human; conditions: SU-DHL-4 target cells, 48 hours
Protocol: as §1

Raji cells = format: cell-based; conditions: with T cells, 48 hours, epcoritamab 0.01 pg/mL-100 ng/mL, gemcitabine, oxaliplatin at EC30 concentrations
Protocol: (§2) Briefly, human Burkitt lymphoma (Raji) and DLBCL (SU-DHL-4) cell lines were used as target cells. Cells were cultured in culture medium (RPMI 1640 with HEPES and L-Glutamine supplemented with 10% heat-inactivated donor bovine serum with iron, and 1% [v/v]penicillin/streptomycin) to which 2 mM L-glutamine and 1 mM sodium pyruvate were added, at 37° C., 5% CO2. T cells, isolated from human healthy donor buffy coats (Sanquin) by negative selection using the RosetteSep™ Human T Cell Enrichment Cocktail (Stemcell Technologies), followed by density centrifugation over a Ficoll gradient, both according to the manufacturer's instructions, were used as effector cells. Isolated cells were washed twice in phosphate buffered saline (PBS) and counted using acridine orange/propidium iodide (AO/PI) viability staining solution (Nexcelom Bioscience) on a Cellometer® Auto 2000 Cell Viability Counter. […] B-cell viability and T-cell activation were measured by flow cytometry (count of CD22-positive cells; expression of the T-cell activation markers CD69, CD25, programmed cell death protein 1 (PD-1), and CD107 [lysosomal associated membrane protein 1; LAMP-1] on CD4+ and CD8+ T cells). Absolute cell numbers were determined by adding Accucheck Counting beads (100 μL/well) (Thermofisher) and calculated as follows:
(§3) Correction factor=([bead count1+bead count2]/average bead countplate)
(§4) Absolute cell number=[cell countsample/correction factor]
(§5) The percentage cytotoxicity was calculated as follows:
(§6) % cytotoxicity=100−([absolute cell numbersample/absolute cell numberno antibody]×100%)

SU-DHL-4 cells = format: cell-based; conditions: SU-DHL-4, with T cells, 48 hours; epcoritamab 0.01 pg/mL-100 ng/mL; gemcitabine, oxaliplatin at EC30 concentrations
Protocol: as §2, §3, §4, §5, §6

[3] = epcoritamab 0.01 pg/mL-100 ng/mL, flow cytometry
[4] = gemcitabine 1 nM, oxaliplatin 0.3 μM

| Molecule | tolerated dose (R/R B-NHL) | T-cell activation (upregulation of CD69, CD25, PD-1 and LAMP-1 expression) [1, 3] | Epcoritamab-induced T-cell activation in the presence of gemcitabine, oxaliplatin, or the combination [1, 4] | T-cell activation (upregulation of CD69, CD25, PD-1 and LAMP-1 expression) [2, 3] | Epcoritamab-induced T-cell activation in the presence of gemcitabine, oxaliplatin, or the combination [2, 4] | cytotoxicity of B cells (decrease in the number of viable B cells) (Raji cells) | cytotoxicity of B cells (decrease in the number of viable B cells) (SU-DHL-4 cells) |
| --- | --- | --- | --- | --- | --- | --- | --- |
| epcoritamab: IgG1 bispecific CD3×CD20 antibody; heavy and light chains of SEQ ID NOs: 24 and 25 (CD3 arm), 26 and 27 (CD20 arm); CAS 2134641-34-0 | at least 48 mg | concentration-dependent activation of both CD4+ (data not shown) and CD8+ T cells | not affected | concentration-dependent activation of both CD4+ (data not shown) and CD8+ T cells | not affected | concentration-dependent T-cell-mediated cytotoxicity | concentration-dependent T-cell-mediated cytotoxicity |
| Nc1ccn(C2OC(CO)C(O)C2(F)F)c(=O)n1 (centres unmarked) [gemcitabine, 4-amino-1-[3,3-difluoro-4-hydroxy-5-(hydroxymethyl)oxolan-2-yl]-1,2-dihydropyrimidin-2-one] | – | – | – | – | – | induced cytotoxicity of B cells | induced cytotoxicity of B cells |
| O=C1[O][Pt]2([NH][C@@H]3CCCC[C@H]3[NH]2)[O]C1=O [oxaliplatin, [(1R,2R)-cyclohexane-1,2-diamine](ethanedioato-O,O′)platinum(II)] | – | – | – | – | – | induced cytotoxicity of B cells | induced cytotoxicity of B cells |
